Assay results: patent US7019007B2 (Syntex (U.S.A.) LLC, priority 2001, dated 2006)

The molecules below were run against T1, CCR-3 receptor (Homo sapiens, UniProt P51677) (assay: CCR-3 Receptor Binding Assay - In Vitro (inhibition of 125I eotaxin binding to CCR-3 L1.2 transfectant cells)). Conditions: inhibition of binding of 125I-eotaxin to CCR-3 L1.2 transfectant cells, 1 hour at room temperature.
T1 construct: expressed in transfected cells; host or cells: L1.2 (murine pre-B lymphoma line) stably transfected with CCR-3
T1 sequence (P51677 1-355): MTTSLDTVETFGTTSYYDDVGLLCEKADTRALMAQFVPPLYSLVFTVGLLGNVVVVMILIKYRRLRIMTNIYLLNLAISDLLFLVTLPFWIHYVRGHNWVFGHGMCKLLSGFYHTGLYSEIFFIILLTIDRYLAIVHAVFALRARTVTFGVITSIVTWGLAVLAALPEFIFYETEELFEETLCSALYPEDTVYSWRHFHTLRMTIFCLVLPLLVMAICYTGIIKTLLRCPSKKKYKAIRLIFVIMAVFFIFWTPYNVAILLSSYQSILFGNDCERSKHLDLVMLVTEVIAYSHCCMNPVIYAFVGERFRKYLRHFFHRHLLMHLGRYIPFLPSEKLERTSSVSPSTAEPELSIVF
Procedure: The CCR-3 antagonistic activity of the compounds of the invention was determined by their ability to inhibit the binding of ^125 I eotaxin to CCR-3 L1.2 transfectant cells (see Ponath, P. D. et al., J. Exp. Med., Vol. 183, 2437–2448, (1996)).
The assay was performed in Costar 96-well polypropylene round bottom plates. Test compounds were dissolved in DMSO and then diluted with binding buffer (50 mM HEPES, 1 mM CaCl2, 5 mM MgCl2, 0.5% bovine serum albumin (BSA), 0.02% sodium azide, pH 7.24) such that the final DMSO concentration was 2%. 25 μl of the test solution or only buffer with DMSO (control samples) was added to each well, followed by the addition of 25 μl of ^125I-eotaxin ([…]) (NEX314, New England Nuclear, Boston, Mass.) and 1.5×10^5 of the CCR-3 L1.2 transfected cells in 25 μl binding buffer. The final reaction volume was 75 μl.
After incubating the reaction mixture for 1 hour at room temperature, the reaction was terminated by filtering the reaction mixture through polyethylenimine treated Packard Unifilter GF/C filter plate (Packard, Chicago, Ill.). The filters were washed four times with ice cold wash buffer containing 10 mm HEPES and 0.5M sodium chloride (pH 7.2) and dried at 65° C. for approximately 10 minutes. 25 μl/well of Microscint-20® scintillation fluid (Packard) was added and the radioactivity retained on the filters was determined by using the Packard TopCount®.

First: O=C(NC1CCCCC1)N[C@@H]1CCC[C@H]1N1CCC(Cc2ccc(Cl)cc2)CC1
Second: O=C(N[C@@H]1CCC[C@H]1N1CCC(Cc2ccc(Cl)cc2)CC1)C1CCCCC1 [Cyclohexanecarboxylic acid {(1R,2R)-2-[4-(4-chloro-benzyl)-piperidin-1-yl]-cyclopentyl}-amide]
The IC50 of the first is 7.3-fold lower: 398 nM for the first, 2910 nM for the second. The first is the more potent here.

`C=CCNC(=O)N[C@@H]1CCC[C@H]1N1CCC(Cc2ccc(Cl)cc2)CC1` and `CCCCNC(=O)N[C@@H]1CCC[C@H]1N1CCC(Cc2ccc(Cl)cc2)CC1` are within 1.5-fold of each other in IC50: 499 nM for the first, 507 nM for the second.

`CC(C)NC(=O)N[C@@H]1CCC[C@H]1N1CCC(Cc2ccc(Cl)cc2)CC1` and `CCOC(=O)CCNC(=O)N[C@@H]1CCC[C@H]1N1CCC(Cc2ccc(Cl)cc2)CC1` are within 1.5-fold of each other in IC50: 885 nM for the first, 729 nM for the second.
